Assay in all cases: NCI-60 cell line screen, 48 h
Assay [1] deals with A549 NSCLC.
Assay [2] deals with MDA-MB-435.
The subject of assay [3] is MDA-N.
Assay [4] deals with RPMI-8226 leukemia.

Several values for one entry are separate records, joined by “and”; a condition that tells them apart may be missing. Equal entries are not always repeated.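 Cells were grown in 96-well plates and exposed to each compound for 48 hours at five concentrations; endpoints were interpolated linearly between bracketing concentrations, or set to the highest concentration if not reached. GI50 = concentration required for 50% inhibition of growth. Definition used: TGI = concentration required for complete inhibition of growth.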

As to `C=C[C@@H]1C[C@]2(C(=O)OC)Cc3nc4ccccc4nc3CC(C(=O)OC)=C2O1`, the TGI in assay [1], in assay [2], in assay [3] and in assay [4] was more than 100 µM in each case.
Regarding `COc1cc2cccc(N)c2cc1OC`, the TGI in assay [1], in assay [2], in assay [3] and in assay [4] was more than 100 µM in each case.
Regarding `C=C(C)[C@H]1C=C[C@@H](OC(=O)c2cccnc2)[C@@]23CO[C@@](C)([C@H](OC(=O)c4cccnc4)[C@@]4(OC(C)=O)C[C@H](C)[C@H](OCCC)[C@@H]4[C@H]2OC(C)=O)[C@H]13`, the TGI in assay [2], in assay [3] and in assay [4] was more than 15 µM throughout.
Regarding `CN(NC(=O)c1cccs1)C1=NCCCCN1`, the TGI in assay [1], in assay [2], in assay [3] and in assay [4] was more than 100 µM each time.
In the case of `CO/N=C(\C(=O)N(C)n1cnnc1)c1csc(NC(c2ccccc2)(c2ccccc2)c2ccccc2)n1`, the TGI in assay [1], in assay [3] and in assay [4] was more than 10 µM throughout.
Consider `NCCN1C(=O)CN=C(c2ccc(Cl)cc2)c2cc(Cl)ccc21`, for which the TGI worked out at 32.2 µM in assay [1], 28.3 µM in assay [2], 31.4 µM in assay [3] and 36.4 µM in assay [4].
Consider `c1ccc([P+](Cc2ccccc2C[P+](c2ccccc2)(c2ccccc2)c2ccccc2)(c2ccccc2)c2ccccc2)cc1`, for which the TGI in assay [1], in assay [2], in assay [3] and in assay [4] was more than 100 µM in each case.
`O=P1(Oc2ccccc2)N(CCCl)CCN1c1ccccc1` (configuration not stated): the TGI in assay [1], in assay [2], in assay [3] and in assay [4] was more than 100 µM in each case.
On to `COc1cccc2c1OC(c1ccc(C#N)cc1)C([N+](=O)[O-])=C2` (configuration not stated), for which the TGI in assay [1] amounted to 7.03 µM; in assay [2], 2.72 µM; in assay [3], 2.87 µM.
Regarding `Cc1ccc(Nc2c(C#N)[n+]([O-])c3cc(Cl)ccc3[n+]2[O-])cc1`, the TGI in assay [1], in assay [2], in assay [3] and in assay [4] was more than 100 µM throughout.
As to `CC(SC(=S)N1CCOCC1)C(=O)Nc1nnc(-c2ccccc2)o1` (configuration not stated), the TGI in assay [1], in assay [2], in assay [3] and in assay [4] was more than 100 µM each time.
Turning to `CC(=O)Nc1cc2c3c(c1)CCCN3CCC2`, the TGI in assay [1], in assay [2], in assay [3] and in assay [4] was more than 100 µM in each case.
Take `CCCCCCCCCCCCCCCCOCC(Cl)COP(=O)(O)OP(=O)(O)OCC1OC(n2cc(C)c(=O)[nH]c2=O)CC1O` (configuration not stated): the TGI in assay [1], in assay [2], in assay [3] and in assay [4] was more than 100 µM in each case.
On to `c1cc2c(c(NC3=NCCO3)c1)CCC2`, for which the TGI in assay [1], in assay [2], in assay [3] and in assay [4] was more than 100 µM each time.
Turning to `O=C(CSc1nc2[nH]ncc2c(=O)[nH]1)c1ccc(Cl)cc1`, the TGI in assay [1], in assay [2], in assay [3] and in assay [4] was more than 100 µM throughout.
Turning to `CCCCCCOc1ccc(C(=O)NO)cc1`, the TGI in assay [1] was determined as 43.3 µM; in assay [2] it was 38.5 µM; in assay [3], 34.1 µM; in assay [4] it was 29.8 µM.
The matching figures for `Cc1nc(N/N=C/c2ccccc2Cl)[nH]c(=O)c1CCO`: more than 100 µM, more than 100 µM, more than 100 µM and more than 100 µM.
As for `COc1ccc2cc(C(=O)O)ccc2c1OC`, the TGI in assay [1], in assay [2] and in assay [3] was more than 100 µM each time.
Regarding `Nc1ccn(C2CCC(CO)O2)c(=S)n1` (configuration not stated), the TGI in assay [1], in assay [2], in assay [3] and in assay [4] was more than 100 µM throughout.
As to `C=C(C)[C@@]1(OC(=O)c2cc([N+](=O)[O-])cc([N+](=O)[O-])c2)C[C@@H]2CCCC[C@@H]21`, the TGI in assay [1], in assay [3] and in assay [4] was more than 100 µM in each case.
For the molecule `COc1ccc(C(CC(=O)C(C)(C)CN2CCCCC2)SCCS(=O)(=O)O)cc1` (configuration not stated), the TGI was more than 100 µM in assay [1], 52.3 µM in assay [2], 96.2 µM in assay [3] and 63.9 µM in assay [4].
On to `COC(=O)c1c(O)ccc2c1c1c(n2Cc2ccc(Cl)cc2Cl)C(=O)c2ccccc2C1=O`, for which the TGI in assay [1] worked out at 19.3 µM; in assay [2], 20.6 µM; in assay [3], 29.5 µM; in assay [4], 13.5 µM.
The matching figures for `CCC[C@H](NS(=O)c1ccc(C)cc1)C(C(=O)OCC)=C(c1ccccc1)c1ccccc1` (some centres not stated): 96.9 µM, 35 µM, 43.2 µM and 55.8 µM.
For `CC1Oc2c(c(=O)oc3ccccc23)[C@@]1(C)CC1C[C@H](C)C(=O)O1` (some centres not stated), in that order: more than 100 µM, 47.8 µM, 45.9 µM and 77.4 µM.
The matching figures for `COc1cc(S(=O)(=O)Nc2ccc(-c3csc(N)n3)cc2)ccc1Cl`: 39.6 µM, 46.9 µM, 38.5 µM and 65.1 µM.
`CCCCC(Sc1cc(Cl)c(C)cc1S(=O)(=O)Nc1n[nH]c(N)n1)C(=O)OC` (configuration not stated): the TGI in assay [1], in assay [2], in assay [3] and in assay [4] was more than 10 µM each time.
For the molecule `CC(=O)Nc1ccc2[nH]c(-c3cccc(Cl)c3)cc(=O)c2c1`, the results for the TGI in assay [1], in assay [2] and in assay [4] were more than 100 µM, 6.93 µM and more than 100 µM, respectively.
`CC(C)=NNC=N/C(C#N)=C(\N)C#N`: the TGI in assay [1] and in assay [4] was more than 100 µM throughout.
Consider `CC(C)NC(=O)OCc1c(COC(=O)NC(C)C)c(-c2cc[n+](COC(=O)C(C)(C)C)cc2)n2c1CCC2`, for which the TGI in assay [1], in assay [2], in assay [3] and in assay [4] was more than 100 µM each time.
`CC(=O)Nc1ccc(-c2nc3ccccc3s2)cc1I`: the TGI in assay [1], in assay [2], in assay [3] and in assay [4] was more than 100 µM throughout.
Consider `O=C(N=Nc1cccc(Cl)c1)NNc1cccc(Cl)c1`, for which the TGI amounted to 94.6 µM in assay [1], 26.5 µM in assay [2], 31.2 µM in assay [3] and 56.8 µM in assay [4].
Regarding `COCCCNC(=O)C1=C(C)NC(C)=C(C(=O)NCCCOC)C1`, the TGI in assay [1], in assay [2], in assay [3] and in assay [4] was more than 100 µM each time.
For `N#C/C(C(=O)Nc1ccc(Cl)cc1)=C(/N)N1CCCCC1`, the TGI in assay [1], in assay [2], in assay [3] and in assay [4] was more than 100 µM in each case.
For the molecule `CC(=O)NC(CCC(=O)C=[N+]=N)C(=O)O` (configuration not stated), the TGI in assay [1], in assay [2], in assay [3] and in assay [4] was more than 100 µM in each case.
With `CC(NC(=O)C(N)CC(=O)O)NC(=O)C1CCC1` (configuration not stated), the TGI in assay [1], in assay [2], in assay [3] and in assay [4] was more than 100 µM throughout.
Turning to `COc1cc(C2C(C#N)=C(N)OC3=C2CCS(=O)(=O)c2ccc(C)cc23)cc(OC)c1OC` (configuration not stated), the TGI in assay [1], in assay [2], in assay [3] and in assay [4] was more than 100 µM throughout.
For the molecule `O=C(c1ccccc1)c1ccc(-n2c3ccccc3c3ccc4c(c32)C(=O)C=CC4=O)cc1`, the TGI in assay [1] was 36.4 µM; in assay [2], 20.5 µM; in assay [3], 40.6 µM; in assay [4] it was more than 100 µM.
For `CC1=CC[C@@]2(CO)[C@@H]([C@@H]1C)[C@H]1CC[C@@H]3[C@@]4(C)CC[C@H](O)C(C)(C)[C@@H]4CC[C@@]3(C)[C@]1(C)C[C@@H]2O`, the TGI in assay [1], in assay [2] and in assay [3] was more than 100 µM throughout.
As for `CCOC(=O)[C@@]12C3C=CC(CC3)[C@]1(C(=O)c1ccccc1)C(=O)C(=O)N2c1ccccc1` (some centres not stated), the TGI in assay [1], in assay [2], in assay [3] and in assay [4] was more than 100 µM in each case.
In the case of `CN(N)c1cc(=O)[nH]c(=O)[nH]1`, the TGI in assay [1], in assay [3] and in assay [4] was more than 100 µM throughout.
With `Oc1ccc(N=C2CCC(=C(c3ccccc3)c3ccc(Nc4ccc(O)cc4)cc3)CC2)cc1`, the TGI in assay [1], in assay [2] and in assay [4] was more than 100 µM each time.
Take `Nc1cc(N2CCCC2)nc(=O)n1-c1ccccc1`: the TGI in assay [1], in assay [2] and in assay [4] was more than 100 µM throughout.
In the case of `[O-][n+]1ccccc1S`, the TGI is 38.5 µM in assay [1], more than 100 µM in assay [2] and 6.47 µM in assay [4]. For the same molecule, the GI50 in assay [2] was 3.17 µM.
Turning to `CC(=O)Oc1ccccc1/C=C/C(=O)/C=C/c1ccccc1OC(C)=O`, the TGI turned out to be 6.37 µM in assay [1], 5.37 µM in assay [2], 6.67 µM in assay [3] and 1.84 µM in assay [4].
For `CCN(CC)c1ccc2cc(C(=O)Nc3ccccc3)c(=N)oc2c1`, in that order: more than 100 µM, more than 100 µM, more than 100 µM and more than 100 µM.
For the molecule `Cc1nc2c(=O)n(-c3ccccc3)c3ccccc3c2o1`, the TGI in assay [1], in assay [2], in assay [3] and in assay [4] was more than 100 µM in each case.
As for `COc1ccc2[nH]cc([C@@H]3C4CCC(C4)[C@H]3NCc3cccc(CN[C@H]4C5CCC(C5)[C@@H]4c4c[nH]c5ccc(OC)cc45)c3)c2c1`, the TGI in assay [1] was 2.64 µM and 2.99 µM; in assay [2] it was 0.988 µM and 0.962 µM; in assay [3], 2.04 µM and 2.2 µM; in assay [4], 1.65 µM and 1.26 µM. Further, the GI50 was 0.776 µM in assay [3] and 0.66 µM in assay [4].
As for `CC(=O)O[C@H]1/C(=C/c2ccncc2)C[C@H]2[C@@H]3CC=C4C[C@@H](N5CCCC5)CC[C@]4(C)[C@H]3CC[C@]12C`, the TGI is 26.8 µM in assay [1], 25.8 µM in assay [2] and 23.4 µM in assay [4].
`C1=C(c2ccccc2)Nc2nnnn2C1c1ccccc1` (configuration not stated): the TGI was more than 100 µM in assay [1], 47 µM in assay [2] and more than 100 µM in assay [3].
As for `CC1CC[C@@]2(OC1)OC1CC3C4CCC5C[C@@H](OC6OC(CO)C(OC7OC(CO)C(O)C(OC8OC(CO)C(O)C(OC9OC(CO)C(O)C(O)C9O)C8O)C7OC7OC(CO)C(O)C(O)C7O)C(O)C6O)[C@H](O)C[C@]5(C)C4CC[C@]3(C)C1[C@@H]2C` (some centres not stated), the TGI in assay [1], in assay [2] and in assay [3] was more than 80.5 µM in each case.
On to `N#Cc1c(N)[nH]c(=S)c(C#N)c1-c1ccccc1`, for which the TGI in assay [1], in assay [3] and in assay [4] was more than 100 µM throughout.
As to `Cc1cc(S(=O)(=O)Nc2cc(N)[nH]n2)c(SCc2nc(N)nc(N(C)C)n2)cc1Cl`, the TGI in assay [1], in assay [3] and in assay [4] was more than 10 µM in each case.
In the case of `O=c1ccn(C2OC(CO)C(O)C2[Se]c2ccccc2)c(=O)[nH]1` (configuration not stated), the TGI in assay [1], in assay [2] and in assay [3] was more than 100 µM each time.
For the molecule `COc1cc(OC)c2nc(C)c3c(c2c1)NCC3`, the TGI in assay [1] was 34.1 µM; in assay [2], 21.6 µM; in assay [3], 21.1 µM.
For `CC1=C/C(=N\O)C(C(O)(C(F)(F)F)C(F)(F)F)C(C)(C)C1` (configuration not stated), in that order: more than 10 µM, more than 10 µM and more than 10 µM.

Source of the values: PubChem BioAssay (NCI).
